In patent publication US20110166123A1, “NOVEL COMPOSITIONS AND METHODS OF USE” (priority 2008, published 2011):
Like-named read-outs stand apart in the source and are kept apart here.

Tested on: human immunodeficiency virus type 1 (HIV-1)
Assay: microbe, parasite or virus in culture
Assay type: cell-based
[1] = Human immunodeficiency virus 1, HeLa, 48 h, HIV-1 luciferase reporter, HeLa cells, 48 hours after infection

## COc1nc2c(cc1N[C@H](C)c1ccc(F)cc1)c(=O)c(C(=O)O)cn2[C@H](CO)C(C)C [Example 20LL, 6-((R)-1-(4-fluorophenyl)ethylamino)-1-((S)-1-hydroxy-3-methylbutan-2-yl)-7-methoxy-4-oxo-1,4-dihydro-1,8-naphthyridine-3-carboxylic acid]
[1]
  EC50: > 100 nM

## CC(C)(C)[C@@H](CO)n1cc(C(=O)O)c(=O)c2cc(Cc3cccc(Cl)c3F)c(F)nc21 [Example 2JJ]
[1]
  EC50: 10 to 100 nM

## COc1nc2c(cc1N1CCc3cc(F)ccc3C1)c(=O)c(C(=O)O)cn2[C@H](CO)C(C)C [Example 17M]
[1]
  EC50: > 100 nM

## CC(C)(C)[C@@H](CO)n1cc(C(=O)O)c(=O)c2cc(Cc3cccc(Cl)c3F)c(OCCCO)nc21 [Example 2F]
[1]
  EC50: < 10 nM

## CC(C)(C)[C@@H](CO)n1cc(C(=O)O)c(=O)c2cc(Cc3cccc(Cl)c3F)c(NCCN3CCOCC3)nc21 [Example 2CC]
[1]
  EC50: < 10 nM

## COc1nc2c(cc1NCc1cc(F)cc(F)c1)c(=O)c(C(=O)O)cn2[C@H](CO)C(C)C [Example 20HH, (S)-6-(3,5-difluorobenzylamino)-1-(1-hydroxy-3-methylbutan-2-yl)-7-methoxy-4-oxo-1,4-dihydro-1,8-naphthyridine-3-carboxylic acid]
[1]
  EC50: > 100 nM

## CC(C)[C@@H](CO)n1cc(C(=O)O)c(=O)c2nc(Cc3cccc(Cl)c3F)ccc21 [Example 8A, 6-(3-Chloro-2-fluoro-benzyl)-1-((S)-1-hydroxymethyl-2-methyl-propyl)-4-oxo-1,4-dihydro-[1,5]naphthyridine-3-carboxylic acid]
[1]
  EC50: > 100 nM

## COc1nc2c(cc1N[C@@H](C)c1ccc(F)cc1)c(=O)c(C(=O)O)cn2[C@H](CO)C(C)C [Example 20KK, 6-((S)-1-(4-fluorophenyl)ethylamino)-1-((S)-1-hydroxy-3-methylbutan-2-yl)-7-methoxy-4-oxo-1,4-dihydro-1,8-naphthyridine-3-carboxylic acid]
[1]
  EC50: > 100 nM

## CCOc1nc2c(cc1NCc1c(F)cc(F)cc1F)c(=O)c(C(=O)O)cn2[C@H](CO)C(C)C [Example 27B, (S)-7-Ethoxy-1-(1-hydroxy-3-methylbutan-2-yl)-4-oxo-6-(2,4,6-trifluorobenzylamino)-1,4-dihydro-1,8-naphthyridine-3-carboxylic acid]
[1]
  EC50: 10 to 100 nM

## COc1nc2c(cc1NC1CCCc3ccccc31)c(=O)c(C(=O)O)cn2[C@H](CO)C(C)C (stereo partly drawn) [Example 20JJ, 1-((S)-1-hydroxy-3-methylbutan-2-yl)-7-methoxy-4-oxo-6-(1,2,3,4-tetrahydronaphthalen-1-ylamino)-1,4-dihydro-1,8-naphthyridine-3-carboxylic acid]
[1]
  EC50: > 100 nM

## COc1nc2c(cc1CNC1CCCc3ccccc31)c(=O)c(C(=O)O)cn2[C@H](CO)C(C)C (stereo partly shown) [Example 12F]
[1]
  EC50: > 100 nM

## CCCn1cc(C(=O)OC(=O)c2ccccc2)c(=O)c2c(N)nc(SC)nc21 [Example 7A]
[1]
  EC50: > 100 nM

## O=C(O)c1cn([C@H](CO)CC2CCCCC2)c2cnc(Cc3cccc(Cl)c3F)cc2c1=O [Example 5N]
[1]
  EC50: > 100 nM

## COc1nc2c(cc1-c1ccc(F)cc1)c(=O)c(C(=O)O)cn2[C@H](CO)C(C)C [Example 17A]
[1]
  EC50: > 100 nM

## COc1cc2c(cc1NCc1ccc(F)cc1F)c(=O)c(C(=O)O)cn2[C@H](CO)C(C)C [Example 21D, (S)-6-(2,4-difluorobenzylamino)-1-(1-hydroxy-3-methylbutan-2-yl)-7-methxoy-4-oxo-1,4-dihydroquinoline-carboxylic acid]
[1]
  EC50: 10 to 100 nM

## O=C(O)c1cn(C[C@H](O)c2ccccc2)c2cnc(Cc3cccc(Cl)c3F)cc2c1=O [Example 5O]
[1]
  EC50: > 100 nM

## COCCNc1nc2c(cc1Cc1cccc(Cl)c1F)c(=O)c(C(=O)O)cn2[C@H](CO)C(C)(C)C [Example 2T]
[1]
  EC50: < 10 nM

## COc1cc2c(cc1CNc1ccc(F)cc1)c(=O)c(C(=O)O)cn2[C@H](CO)C(C)C [Example 13A, (S)-6-((4-fluorophenylamino)methyl)-1-(1-hydroxy-3-methylbutan-2-yl)-7-methoxy-4-oxo-1,4-dihydroquinoline-3-carboxylic acid]
[1]
  EC50: > 100 nM

## COCCCNc1nc2c(cc1Cc1cccc(Cl)c1F)c(=O)c(C(=O)O)cn2[C@H](CO)C(C)(C)C [Example 2U]
[1]
  EC50: < 10 nM

## COc1nc2c(cc1-c1ccc(F)cc1F)c(=O)c(C(=O)O)cn2[C@H](CO)C(C)C [Example 17E]
[1]
  EC50: > 100 nM

## COc1nc2c(cc1NCc1ccccc1F)c(=O)c(C(=O)O)cn2[C@H](CO)C(C)C [Example 20D, (S)-6-(2-fluorobenzylamino)-1-(1-hydroxy-3-methylbutan-2-yl)-7-methoxy-4-oxo-1,4-dihydro-1,8-naphthyridine-3-carboxylic acid]
[1]
  EC50: 10 to 100 nM

## COc1nc2c(cc1NCc1ccc(Cl)c(Cl)c1)c(=O)c(C(=O)O)cn2[C@H](CO)C(C)C [Example 20K, (S)-6-(3,4-dichlorobenzylamino)-1-(1-hydroxy-3-methylbutan-2-yl)-7-methoxy-4-oxo-1,4-dihydro-1,8-naphthyridine-3-carboxylic acid]
[1]
  EC50: > 100 nM

## CC(C)[C@@H](CO)n1cc(C(=O)O)c(=O)c2cc(Cc3cccc(Cl)c3F)cnc21 [Example 4A, (S)-6-(3-chloro-2-fluorobenzyl)-1-(1-hydroxy-3-methylbutan-2-yl)-4-oxo-1,4-dihydro-1,8-naphthyridine-3-carboxylic acid]
[1]
  EC50: 10 to 100 nM

## CC(C)(C)[C@@H](CO)n1cc(C(=O)O)c(=O)c2cc(Cc3cccc(Cl)c3F)c(NCCCn3ccnc3)nc21 [Example 2GG]
[1]
  EC50: 10 to 100 nM

## CN(C)CCOc1nc2c(cc1Cc1cccc(Cl)c1F)c(=O)c(C(=O)O)cn2[C@H](CO)C(C)(C)C [Example 2K]
[1]
  EC50: 10 to 100 nM

## COc1nc2c(cc1Cc1cccc(Cl)c1F)c(=O)c(C(=O)O)cn2[C@@H](CO)C(C)C [Example 1C]
[1]
  EC50: 10 to 100 nM

## COc1cc2c(cc1CCc1ccc(F)cc1F)c(=O)c(C(=O)O)cn2[C@H](CO)C(C)(C)C [Example 18A, 6-[2-(2,4-Difluoro-phenyl)-ethyl]-1-((S)-1-hydroxymethyl-2,2-dimethyl-propyl)-7-methoxy-4-oxo-1,4-dihydro-quinoline-3-carboxylic acid]
[1]
  EC50: > 100 nM

## Cc1nc2c(cc1Cc1cccc(Cl)c1F)c(=O)c(C(=O)O)cn2[C@H](CO)C(C)(C)C [Example 3B, 6-(3-Chloro-2-fluorobenzyl)-1-((S)-1-hydroxymethyl-2,2-dimethyl-propyl)-7-methyl-4-oxo-1,4-dihydro-1,8-naphthyridine-3-carboxylic acid]
[1]
  EC50: 10 to 100 nM

## CC(C)(C)[C@@H](CO)n1cc(C(=O)O)c(=O)c2cc(Cc3cccc(Cl)c3F)c(O)nc21 [Example 2B, (S)-6-(3-chloro-2-fluorobenzyl)-7-hydroxy-1-(1-hydroxy-3,3-dimethylbutan-2-yl)-4-oxo-1,4-dihydro-1,8-naphthyridine-3-carboxylic acid]
[1]
  EC50: 10 to 100 nM

## COc1nc2c(cc1CNc1c(F)cc(F)cc1F)c(=O)c(C(=O)O)cn2[C@H](CO)C(C)C [Example 12A, (S)-1-(1-hydroxy-3-methylbutan-2-yl)-7-methoxy-4-oxo-6-((2,4,6-trifluorophenylamino)methyl)-1,4-dihydro-1,8-naphthyridine-3-carboxylic acid]
[1]
  EC50: > 100 nM

## COc1nc2c(cc1N(C)Cc1ccc(F)cc1)c(=O)c(C(=O)O)cn2[C@H](CO)C(C)C [Example 20V, (S)-6-((4-fluorobenzyl)(methyl)amino)-1-(1-hydroxy-3-methylbutan-2-yl)-7-methoxy-4-oxo-1,4-dihydro-1,8-naphthyridine-3-carboxylic acid]
[1]
  EC50: > 100 nM

## COc1nc2c(cc1-c1ccc(F)c(Cl)c1)c(=O)c(C(=O)O)cn2[C@H](CO)C(C)C [Example 17D]
[1]
  EC50: > 100 nM

## CC(C)[C@@H](CO)n1cc(C(=O)O)c(=O)c2cc(Cc3cccc(Cl)c3F)ncc21 [Example 5A, 6-(3-Chloro-2-fluoro-benzyl)-1-((S)-1-hydroxymethyl-2-methyl-propyl)-4-oxo-1,4-dihydro-[1,7]naphthyridine-3-carboxylic acid]
[1]
  EC50: 10 to 100 nM

## COCCOc1cc2c(cc1NCc1ccc(F)cc1)c(=O)c(C(=O)O)cn2[C@H](CO)C(C)(C)C [Example 27C, (S)-6-(4-fluorobenzylamino)-1-(1-hydroxy-3,3-dimethylbutan-2-yl)-7-(2-methoxyethoxy)-4-oxo-1,4-dihydroquinoline-3-carboxylic acid]
[1]
  EC50: 10 to 100 nM

## COc1cc2c(cc1OCc1cc(Cl)ccc1F)c(=O)c(C(=O)O)cn2[C@H](CO)C(C)(C)C [Example 29D, (S)-6-(5-chloro-2-fluorobenzyloxy)-1-(1-hydroxy-3,3-dimethylbutan-2-yl)-7-methoxy-4-oxo-1,4-dihydroquinoline-3-carboxylic acid]
[1]
  EC50: > 100 nM

## COc1nc2c(cc1Cc1cccc(Cl)c1F)c(=O)c(C(=O)O)cn2C1CCOCC1 [Example 1N]
[1]
  EC50: > 100 nM

## COc1nc2c(cc1NCc1cc(F)c(F)c(F)c1)c(=O)c(C(=O)O)cn2[C@H](CO)C(C)C [Example 20DD, (S)-1-(1-hydroxy-3-methylbutan-2-yl)-7-methoxy-4-oxo-6-(3,4,5-trifluorobenzylamino)-1,4-dihydro-1,8-naphthyridine-3-carboxylic acid]
[1]
  EC50: > 100 nM

## COc1nc2c(cc1COc1c(F)cc(F)cc1F)c(=O)c(C(=O)O)cn2[C@H](CO)C(C)C [Example 14A, (S)-1-(1-hydroxy-3-methylbutan-2-yl)-7-methoxy-4-oxo-6-((2,4,6-trifluorophenoxy)methyl)-1,4-dihydro-1,8-naphthyridine-3-carboxylic acid]
[1]
  EC50: > 100 nM
Human immunodeficiency virus 1, HeLa, HIV-1 luciferase reporter, HeLa cells
  EC50: > 2500 nM
Human immunodeficiency virus 1, read-out: Rank, rank of EC50, HIV-1 luciferase reporter
  EC50: > 100 nM

## COc1nc2c(cc1NCc1ccc(F)c(F)c1F)c(=O)c(C(=O)O)cn2[C@H](CO)C(C)C [Example 20EE, (S)-1-(1-hydroxy-3-methylbutan-2-yl)-7-methoxy-4-oxo-6-(2,3,4-trifluorobenzylamino)-1,4-dihydro-1,8-naphthyridine-3-carboxylic acid]
[1]
  EC50: > 100 nM

## COc1nc2c(cc1Cc1cccc(Cl)c1F)c(=O)c(C(=O)O)cn2[C@H](CO)C1CCCCC1 [Example 1O]
[1]
  EC50: < 10 nM

## CC(C)[C@@H](CO)n1cc(C(=O)O)c(=O)c2cc(Cc3ccccc3F)cnc21 [Example 4B]
[1]
  EC50: > 100 nM
